Experiment: molar heat capacity at constant pressure
Conditions: 101.33 kPa, Liquid

CCCCBr [1-bromobutane]
Conditions	molar heat capacity at constant pressure [J/K/mol]
284.15 K	159.45
286.65 K	159.98
289.15 K	160.53
291.65 K	161.01
294.15 K	161.52
296.65 K	162.08
299.15 K	162.6
301.65 K	163.08
304.15 K	163.72
306.65 K	164.22
309.15 K	164.78
311.65 K	165.34
314.15 K	165.94
316.65 K	166.49
319.15 K	167.09
321.65 K	167.67
324.15 K	168.29
326.65 K	168.83
329.15 K	169.45
331.65 K	170.09
334.15 K	170.63
336.65 K	171
339.15 K	171.94
341.65 K	172.57
344.15 K	173.26
346.65 K	173.89
349.15 K	174.51
351.65 K	175.19
353.15 K	175.47

CCCCCCCCCCBr [1-bromodecane]
Conditions	molar heat capacity at constant pressure [J/K/mol]
284.15 K	332.6
286.65 K	333.65
289.15 K	335
291.65 K	336.08
294.15 K	336.9
296.65 K	338.2
299.15 K	339.29
301.65 K	340.37
304.15 K	341.48
306.65 K	342.74
309.15 K	343.89
311.65 K	345.13
314.15 K	346.34
316.65 K	347.51
319.15 K	348.84
321.65 K	350.1
324.15 K	351.41
326.65 K	352.71
329.15 K	354.02
331.65 K	355.32
334.15 K	356.14
336.65 K	357.34
339.15 K	359.3
341.65 K	360.7
344.15 K	362.13
346.65 K	363.37
349.15 K	364.86
351.65 K	366.38
353.15 K	367.07

CCCCCCCBr [1-bromoheptane]
Conditions	molar heat capacity at constant pressure [J/K/mol]
284.15 K	244.73
286.65 K	245.56
289.15 K	246.44
291.65 K	247.28
294.15 K	248.12
296.65 K	248.93
299.15 K	249.7
301.65 K	250.38
304.15 K	251.56
306.65 K	252.33
309.15 K	253.19
311.65 K	254.14
314.15 K	255
316.65 K	255.97
319.15 K	256.84
321.65 K	257.85
324.15 K	258.76
326.65 K	259.71
329.15 K	260.68
331.65 K	261.61
334.15 K	262.5
336.65 K	262.97
339.15 K	264.64
341.65 K	265.49
344.15 K	266.52
346.65 K	267.46
349.15 K	268.47
351.65 K	269.51
353.15 K	270.03

CCCCCCBr [1-bromohexane]
Conditions	molar heat capacity at constant pressure [J/K/mol]
284.15 K	215.54
286.65 K	216.29
289.15 K	217.08
291.65 K	217.78
294.15 K	218.54
296.65 K	219.26
299.15 K	219.99
301.65 K	220.68
304.15 K	221.38
306.65 K	222.22
309.15 K	222.98
311.65 K	223.79
314.15 K	224.63
316.65 K	225.37
319.15 K	226.2
321.65 K	227.01
324.15 K	227.86
326.65 K	228.67
329.15 K	229.55
331.65 K	230.39
334.15 K	231.21
336.65 K	231.59
339.15 K	233.25
341.65 K	233.77
344.15 K	234.73
346.65 K	235.64
349.15 K	236.55
351.65 K	237.39
353.15 K	237.85

CCCCCCCCCBr [1-bromononane]
Conditions	molar heat capacity at constant pressure [J/K/mol]
284.15 K	302.55
286.65 K	303.54
289.15 K	304.62
291.65 K	305.57
294.15 K	306.69
296.65 K	307.68
299.15 K	308.8
301.65 K	309.82
304.15 K	310.95
306.65 K	311.91
309.15 K	313.01
311.65 K	314.1
314.15 K	315.18
316.65 K	316.32
319.15 K	317.44
321.65 K	318.7
324.15 K	319.8
326.65 K	320.96
329.15 K	322.16
331.65 K	323.32
334.15 K	324.63
336.65 K	325
339.15 K	326.99
341.65 K	328.13
344.15 K	329.39
346.65 K	330.49
349.15 K	331.79
351.65 K	333.04
353.15 K	333.74

CCCCCBr [1-bromopentane]
Conditions	molar heat capacity at constant pressure [J/K/mol]
284.15 K	187.88
286.65 K	188.46
289.15 K	189.17
291.65 K	189.85
294.15 K	190.33
296.65 K	190.94
299.15 K	191.57
301.65 K	192.17
304.15 K	193.01
306.65 K	193.53
309.15 K	194.17
311.65 K	194.86
314.15 K	195.6
316.65 K	196.21
319.15 K	196.98
321.65 K	197.61
324.15 K	198.35
326.65 K	199.09
329.15 K	199.8
331.65 K	200.47
334.15 K	201.48
336.65 K	201.57
339.15 K	202.76
341.65 K	203.58
344.15 K	204.33
346.65 K	205.07
349.15 K	205.89
351.65 K	206.69
353.15 K	207.05

CCCBr [1-bromopropane]
Conditions	molar heat capacity at constant pressure [J/K/mol]
269.15 K	129.02
271.65 K	129.44
274.15 K	129.78
276.65 K	130.1
279.15 K	130.48
281.65 K	130.86
284.15 K	131.2
286.65 K	131.64
289.15 K	132.01
291.65 K	132.46
294.15 K	132.78
296.65 K	133.2
299.15 K	133.64
301.65 K	134
304.15 K	134.55
306.65 K	134.93
309.15 K	135.35
311.65 K	135.8
314.15 K	136.23
316.65 K	136.68
319.15 K	137.16
321.65 K	137.6
324.15 K	138.11
326.65 K	138.55

CCCCCl [1-chlorobutane]
Conditions	molar heat capacity at constant pressure [J/K/mol]
284.15 K	156.22
286.65 K	156.75
289.15 K	157.28
291.65 K	157.7
294.15 K	158.27
296.65 K	158.86
299.15 K	159.48
301.65 K	160.05
304.15 K	160.5
306.65 K	161.06
309.15 K	161.59
311.65 K	162.24
314.15 K	162.92
316.65 K	163.42
319.15 K	164.11
321.65 K	164.82
324.15 K	165
326.65 K	165.97
329.15 K	166.72
331.65 K	167.29
334.15 K	167.78
336.65 K	168.53
339.15 K	169.12
341.65 K	170.01
344.15 K	170.43
346.65 K	170.49
349.15 K	171.5
351.65 K	173.02
353.15 K	173.09

From the NIST ThermoML archive (doi:10.1021/je049652j)
